Measurements as given in patent publication US10189843B2, “Fused pyrazole derivative having autotaxin inhibitory activity” (The University of Tokyo, priority 2014, dated 2019).

These compounds were tested against T1, Human autotaxin enzyme (Homo sapiens, UniProt Q13822) (assay: Evaluation of autotaxin inhibitor, Method C (18:0 Lyso PC substrate, choline assay, Resorufin fluorescence)). Details: Method C (Test Example 3), read-out: Inhibitory activity (enzyme inhibitory activity, IC50).
T1 construct: purchased R&D System
Assay type: biochemical
Procedure: Test Example 3 (Method C) Evaluation of Autotaxin Inhibitor
Solution B containing 100 mM Tris-HCl buffer (pH7.5), 150 mM NaCl, 5 mM MgCl2, and 0.05% Triton X-100 was prepared. Human autotaxin enzyme (purchased from R&D System) was diluted with Solution B, and 2.5 μl of which was added to a solution of test compound in DMSO. Furthermore, 2.5 μl of 200 μM 18:0 Lyso PC (purchased from Avanti Polar Lipids) in Solution B was added and allowed to react at room temperature for 2 hours. After completion of the reaction, 15 μl of the coline assay reagent (100 mM Tris-HCl buffer (pH7.5), 5 mM MgCl2, 77 μg/ml coline oxidase, 10 μg/ml peroxydase, 25 μM 10-acetyl-3,7-dihydroxyphenoxazine, and excess autotaxin inhibitor) was added and allowed to react at room temperature for 20 minutes. The fluorescent dye Resorufin, which was produced by the reaction, was detected. The fluorescence was detected using ViewLux (PerkinElmer, Inc.) with a excitation wavelength of 531 nm and a fluorescence wavelength of 598 nm.
The percent inhibition of the test compound was calculated by assuming the sample with no test compound as 0% inhibition and the sample with no enzyme as 100% inhibition, and the percent inhibitions at different concentrations of the test compound were plotted to obtain a concentration-dependent curve.

Row | SMILES | IC50 [nM]
1 | CCCCCC1CNC(=O)c2cc(-c3ccc(Cl)cc3)nn21 (stereo not shown) [Compound I-0001] | ≥ 1000
2 | CCCCCC1CN(CC(=O)OCC)C(=O)c2cc(-c3ccc(Cl)cc3)nn21 (stereo not shown) [Compound I-0002] | 10 to 100
3 | CCCCCC1CN(CC(=O)O)C(=O)c2cc(-c3ccc(Cl)cc3)nn21 (stereo not shown) [Compound I-0003] | ≥ 1000
4 | CCCCCC1CN(CC(=O)N2CCC(C(=O)OCC)CC2)C(=O)c2cc(-c3ccc(Cl)cc3)nn21 (stereo not shown) [Compound I-0004] | 10 to 100
5 | CCCCCC1CN(CNC(=O)OC(C)(C)C)C(=O)c2cc(-c3ccc(Cl)cc3)nn21 (stereo not shown) [Compound I-0005] | 100 to 1000
6 | CCCCCC1CN(CCO)C(=O)c2cc(-c3ccc(Cl)cc3)nn21 (stereo not shown) [Compound I-0006] | 100 to 1000
7 | CCCCCC1CN(CC(=O)N2CCC(C(=O)O)CC2)C(=O)c2cc(-c3ccc(Cl)cc3)nn21 (stereo not shown) [Compound I-0007] | < 10
8 | CCCCCC1CN(CNC(C)=O)C(=O)c2cc(-c3ccc(Cl)cc3)nn21 (stereo not shown) [Compound I-0008] | 10 to 100
9 | CCOC(=O)CN1C(=O)c2cc(-c3ccc(Cl)cc3)nn2[C@H]2CCC[C@H]21 [Compound I-0009] | 100 to 1000
10 | CCOC(=O)CN1C(=O)c2cc(-c3ccc(Cl)cc3)nn2[C@@H]2CCC[C@@H]21 [Compound I-0010] | ≥ 1000
11 | CCOC(=O)C1CCN(C(=O)CN2C(=O)c3cc(-c4ccc(Cl)cc4)nn3[C@@H]3CCC[C@@H]32)CC1 [Compound I-0011] | ≥ 1000
12 | O=C(O)C1CCN(C(=O)CN2C(=O)c3cc(-c4ccc(Cl)cc4)nn3[C@H]3CCC[C@H]32)CC1 [Compound I-0012] | 100 to 1000
13 | O=C(O)C1CCN(C(=O)CN2C(=O)c3cc(-c4ccc(Cl)cc4)nn3[C@@H]3CCC[C@@H]32)CC1 [Compound I-0013] | ≥ 1000
14 | CCOC(=O)CN1CC(C)(C)n2nc(-c3ccc(Cl)cc3)cc2C1=O [Compound I-0014] | ≥ 1000
15 | CCOC(=O)C1CCN(C(=O)CN2CC(C)(C)n3nc(-c4ccc(Cl)cc4)cc3C2=O)CC1 [Compound I-0015] | ≥ 1000
16 | CC1(C)CN(CC(=O)N2CCC(C(=O)O)CC2)C(=O)c2cc(-c3ccc(Cl)cc3)nn21 [Compound I-0016] | ≥ 1000
17 | CCOC(=O)CN1CC(CC)n2nc(-c3ccc(Cl)cc3)cc2C1=O (stereo not shown) [Compound I-0017] | ≥ 1000
18 | CCOC(=O)CN1CC(C2CC2)n2nc(-c3ccc(Cl)cc3)cc2C1=O (stereo not shown) [Compound I-0018] | ≥ 1000
19 | CCOC(=O)CN1C[C@H](C)n2nc(-c3ccc(Cl)cc3)cc2C1=O [Compound I-0019] | ≥ 1000
20 | CCOC(=O)CN1C[C@@H](C)n2nc(-c3ccc(Cl)cc3)cc2C1=O [Compound I-0020] | ≥ 1000
21 | CCOC(=O)CN1C[C@H](c2ccccc2)n2nc(-c3ccc(Cl)cc3)cc2C1=O [Compound I-0021] | ≥ 1000
22 | CCOC(=O)CN1CC(C(C)C)n2nc(-c3ccc(Cl)cc3)cc2C1=O (stereo not shown) [Compound I-0022] | ≥ 1000
23 | CCOC(=O)CN1CC(CC(F)(F)F)n2nc(-c3ccc(Cl)cc3)cc2C1=O (stereo not shown) [Compound I-0023] | ≥ 1000

Row | SMILES | IC50 [nM]
24 | O=C1NCC(COCc2ccccc2)n2nc(-c3ccc(Cl)cc3)cc21 (stereo not shown) [Compound I-0024] | ≥ 1000
25 | CCOC(=O)CN1CC(Cc2ccccc2)n2nc(-c3ccc(Cl)cc3)cc2C1=O (stereo not shown) [Compound I-0025] | 100 to 1000
26 | CCOC(=O)CN1CC(COCc2ccccc2)n2nc(-c3ccc(Cl)cc3)cc2C1=O (stereo not shown) [Compound I-0026] | ≥ 1000
27 | CCOC(=O)CN1C(=O)c2cc(-c3ccc(Cl)cc3)nn2C2COCC21 (stereo not shown) [Compound I-0027] | ≥ 1000
28 | O=C(O)C1CCN(C(=O)CN2C(=O)c3cc(-c4ccc(Cl)cc4)nn3C3COCC32)CC1 (stereo not shown) [Compound I-0028] | ≥ 1000
29 | O=C(O)C1CN(C(=O)CN2C(=O)c3cc(-c4ccc(Cl)cc4)nn3C3COCC32)C1 (stereo not shown) [Compound I-0029] | ≥ 1000
30 | CCCCCC1CN(CC(=O)N2CCCCC2Cc2ccccc2)C(=O)c2cc(-c3ccc(Cl)cc3)nn21 (stereo not shown) [Compound I-0030] | ≥ 1000
31 | CCCCCCC1CCCN1C(=O)CN1CC(CCCCC)n2nc(-c3ccc(Cl)cc3)cc2C1=O (stereo not shown) [Compound I-0031] | ≥ 1000
32 | CCCCCC1CN(CC(=O)N2CCC(Cc3ccccc3)C2)C(=O)c2cc(-c3ccc(Cl)cc3)nn21 (stereo not shown) [Compound I-0032] | 100 to 1000
33 | CCCCCC1CN(CC(=O)N2CCC(C(N)=O)CC2)C(=O)c2cc(-c3ccc(Cl)cc3)nn21 (stereo not shown) [Compound I-0033] | ≥ 1000
34 | CCCCCC1CN(CC(=O)N2CCC(N(C)C)C2)C(=O)c2cc(-c3ccc(Cl)cc3)nn21 (stereo not shown) [Compound I-0034] | ≥ 1000
35 | CCCCCC1CN(CC(=O)N2CCC(O)C2)C(=O)c2cc(-c3ccc(Cl)cc3)nn21 (stereo not shown) [Compound I-0035] | 100 to 1000
36 | CCCCCC1CN(CC(=O)N2CCC(c3ccccc3)CC2)C(=O)c2cc(-c3ccc(Cl)cc3)nn21 (stereo not shown) [Compound I-0036] | 10 to 100
37 | CCCCCC1CN(CC(=O)N2CCNC(=O)C2)C(=O)c2cc(-c3ccc(Cl)cc3)nn21 (stereo not shown) [Compound I-0037] | 10 to 100
38 | CCCCCC1CN(CC(=O)NCC(=O)N(C)C)C(=O)c2cc(-c3ccc(Cl)cc3)nn21 (stereo not shown) [Compound I-0038] | 100 to 1000
39 | CCCCCC1CN(CC(=O)N2CCC(CC(C)C)C2)C(=O)c2cc(-c3ccc(Cl)cc3)nn21 (stereo not shown) [Compound I-0039] | 100 to 1000
40 | CCCCCC1CN(CC(=O)N2CCCC2CO)C(=O)c2cc(-c3ccc(Cl)cc3)nn21 (stereo not shown) [Compound I-0040] | 100 to 1000
41 | CCCCCC1CN(CC(=O)N2CCCCC2C(=O)N2CCCCC2)C(=O)c2cc(-c3ccc(Cl)cc3)nn21 (stereo not shown) [Compound I-0041] | 10 to 100
42 | CCCCCC1CN(CC(=O)Nc2ccccc2C(=O)O)C(=O)c2cc(-c3ccc(Cl)cc3)nn21 (stereo not shown) [Compound I-0042] | 100 to 1000
43 | CCCCCC1CN(CC(=O)N(C)CC(=O)O)C(=O)c2cc(-c3ccc(Cl)cc3)nn21 (stereo not shown) [Compound I-0043] | 10 to 100
44 | CCCCCC1CN(CC(=O)NCCC(=O)O)C(=O)c2cc(-c3ccc(Cl)cc3)nn21 (stereo not shown) [Compound I-0044] | 10 to 100
45 | CCCCCC1CN(CC(=O)NCc2ccc(C(=O)O)cc2)C(=O)c2cc(-c3ccc(Cl)cc3)nn21 (stereo not shown) [Compound I-0045] | 100 to 1000
46 | CCCCCC1CN(CC(=O)NCCCCCC(=O)O)C(=O)c2cc(-c3ccc(Cl)cc3)nn21 (stereo not shown) [Compound I-0046] | 100 to 1000

Row | SMILES | IC50 [nM]
47 | CCCCCC1CN(CC(=O)NCCCC(=O)O)C(=O)c2cc(-c3ccc(Cl)cc3)nn21 (stereo not shown) [Compound I-0047] | 10 to 100
48 | CCCCCC1CN(CC(=O)N2CCC(CC(=O)O)CC2)C(=O)c2cc(-c3ccc(Cl)cc3)nn21 (stereo not shown) [Compound I-0048] | 10 to 100
49 | CCCCCC1CN(CC(=O)Nc2cccc(C(=O)O)c2)C(=O)c2cc(-c3ccc(Cl)cc3)nn21 (stereo not shown) [Compound I-0049] | 10 to 100
50 | CCCCCC1CN(CC(=O)N2CCCC(C(=O)O)C2)C(=O)c2cc(-c3ccc(Cl)cc3)nn21 (stereo not shown) [Compound I-0050] | 10 to 100
51 | CCCCCC1CN(CC(=O)NC2CCC[C@@H]2C(=O)OCC)C(=O)c2cc(-c3ccc(Cl)cc3)nn21 (stereo partly shown) [Compound I-0051] | 100 to 1000
52 | CCCCCC1CN(CC(=O)N2CCCCC2C(=O)O)C(=O)c2cc(-c3ccc(Cl)cc3)nn21 (stereo not shown) [Compound I-0052] | < 10
53 | CCCCCC1CN(CC(=O)N2CCCC(CC(=O)O)C2)C(=O)c2cc(-c3ccc(Cl)cc3)nn21 (stereo not shown) [Compound I-0053] | 10 to 100
54 | CCCCCC1CN(CC(=O)NC[C@H]2CC[C@H](C(=O)O)CC2)C(=O)c2cc(-c3ccc(Cl)cc3)nn21 (stereo partly shown) [Compound I-0054] | 100 to 1000
55 | CCCCCC1CN(CC(=O)NC(Cc2ccccc2)C(=O)O)C(=O)c2cc(-c3ccc(Cl)cc3)nn21 (stereo not shown) [Compound I-0055] | < 10
56 | CCCCCC1CN(CC(=O)Nc2cccc(CC(=O)O)c2)C(=O)c2cc(-c3ccc(Cl)cc3)nn21 (stereo not shown) [Compound I-0056] | 10 to 100
57 | CCCCCC1CN(CC(=O)NCCCCCCC(=O)O)C(=O)c2cc(-c3ccc(Cl)cc3)nn21 (stereo not shown) [Compound I-0057] | 100 to 1000
58 | CCCCCC1CN(CC(=O)Nc2ccc(CCC(=O)O)cc2)C(=O)c2cc(-c3ccc(Cl)cc3)nn21 (stereo not shown) [Compound I-0058] | 100 to 1000
59 | CCCCCC1CN(CC(=O)NCC(=O)O)C(=O)c2cc(-c3ccc(Cl)cc3)nn21 (stereo not shown) [Compound I-0059] | 10 to 100
60 | CCCCCC1CN(CC(=O)NC2CCC(C(=O)O)CC2)C(=O)c2cc(-c3ccc(Cl)cc3)nn21 (stereo not shown) [Compound I-0060] | 100 to 1000
61 | CCCCCC1CN(CC(=O)NCCCCC(=O)O)C(=O)c2cc(-c3ccc(Cl)cc3)nn21 (stereo not shown) [Compound I-0061] | 10 to 100
62 | CCCCCC1CN(CC(=O)NC(CCC)C(=O)O)C(=O)c2cc(-c3ccc(Cl)cc3)nn21 (stereo not shown) [Compound I-0062] | < 10
63 | CCCCCC1CN(CC(=O)N2C[C@@H]3C(C(=O)O)[C@@H]3C2)C(=O)c2cc(-c3ccc(Cl)cc3)nn21 (stereo partly shown) [Compound I-0063] | 10 to 100
64 | CCCCCC1CN(CC(=O)N[C@@H](C(=O)O)c2ccccc2)C(=O)c2cc(-c3ccc(Cl)cc3)nn21 (stereo partly shown) [Compound I-0064] | < 10
65 | CCCCCC1CN(CC(=O)N2CCCC2C(=O)O)C(=O)c2cc(-c3ccc(Cl)cc3)nn21 (stereo not shown) [Compound I-0065] | 10 to 100
66 | CCCCCC1CN(CC(=O)N2CCC(C(=O)O)C2)C(=O)c2cc(-c3ccc(Cl)cc3)nn21 (stereo not shown) [Compound I-0066] | 10 to 100
67 | CCCCCC1CN(CC(=O)Nc2ccccc2CC(=O)O)C(=O)c2cc(-c3ccc(Cl)cc3)nn21 (stereo not shown) [Compound I-0067] | 100 to 1000
